Experimental findings from patent publication US20250281496A1, “METHODS OF TREATING NEUROPATHY USING FORETINIB AND COMPOSITIONS THEREOF” (INDIANA UNIVERSITY RESEARCH AND TECHNOLOGY CORPORATION, priority 2022, published 2025) are described below.

Data set [1] has as its system TDP-43 mutant Zebra fish larvae. The data set is described as follows: TDP-43 mutant Zebra fish larvae ALS model. More on the design: motor neuron axon length and NMJ formation: dose or concentration left out as unconfirmed. It counts as in vivo.
In data set [2] the test system is human iPSC-derived cultured MNs. The data set is described as follows: Thapsigargin- and Tunicamycin-induced death of human iPSC-derived motor neurons. The class given is cell-based. The settings on record: 1 μM Thapsigargin or 1 μM Tunicamycin, 0.5 uM Foretinib, 48 hrs. How it is done:
A) Rat sympathetic neurons grown in compartmented cultures for one week in the presence of NGF were switched into the indicated conditions for 48 h and immunostained for βIII-tubulin (white). Schematics on the left show the configurations used. In the top panels, NGF was maintained in all compartments. In the center and bottom panels, NGF was withdrawn from all compartments. At the bottom panel and 500 nM foretinib (Foret) added to one of the sides and the center compartment. Fluorescence images show βIII-tubulin-positive axons in the sides compartment. At the right, enlarged images of the axons per condition. While the NGF deprived neurons degenerated (axonal beading and degradation in the central panel), Foretinib supplemented (lower panel) axons kept growing Red arrow at the top of the image indicates the distance of the axonal extension during 48 h since NGF withdrawal. Size bar: […].B) MNs were differentiated from healthy human iPS (Line ID 1016A)^62 as described^63. 3 day old MNs were treated with either 1 μM of Thapsigargin (Thaps) or 1 μM Tunicamycin (Tuni) and/or with either 0.5 uM of Foretinib. […] C) Quantitative representation of the results as in B. Error bars represent standard error; *p<0.05; ***p<0.005; t-test. […] E) Quantitative representation of changes in mouse body weight in dependence of the indicated IP daily doses of Foretinib.

The conditions of data set [3]: mouse, in vivo, ip, 20 days. How it is done:
A) Quantitative representation of changes in mouse body weight in dependence of the indicated IP daily doses of Foretinib (n=2 per dose). B) Changes in mouse blood plasma concentration of 5 mg/kg IP injected Foretinib during 48 hours after a single injection (n=3).
It is expected that Foretinib will protect against the diabetes-induced loss of terminal axons and ensheathing SC. In our previous study, 30 mg/kg of foretinib was administered via daily gavage for a course of 5 weeks. Although reported as non-toxic, at this dose the drug, along with a strong neuroprotective effect, caused lethargic behavior, ruffled fur and weight loss requiring early termination of the experiment. Due to the substantial prevalence of type 2 diabetes, we will examine the effect of foretinib treatment on type 2 diabetic mice (db/db). To define the maximal tolerable dose, we treated wt mice by daily intraperitoneal (IP) injection of several various dosages of foretinib for 20 days, while assessing the mice weight and behavior. […] Next, to define the pharmacokinetic (PK) characteristics of the drug, we performed a mass spectrometry analysis of blood samples from wt mice treated with 5 mg/kg (n=3 mice per dose per time point). We observed that IP injection of 5 mg/kg of foretinib generated nearly 100 ng/ml blood concentration during first 4 hours, declining by 4 ng/ml/hour (FIG. 7B).

For data set [4], the system named is experimental diabetic neuropathy. The data set is described as follows: Three-dimensional assessment of cutaneous innervation (volumetric nerve fiber density) in STZ-diabetic mice. The class given is in vivo. The settings on record: 30 mg/kg oral daily; 5 weeks post-STZ; non-treated 44.9%, vehicle 37.8%. How it is done: In total, 20 mice were injected with 100 mg/kg bodyweight of streptozotocin (STZ, […], Sigma Aldrich) in 0.1M citrate buffer (pH 4.5) on two consecutive days respectively, to induce diabetes type 1^27. Prior to the first injection and in weekly intervals thereafter, all animals were weighted and underwent tail prick blood sugar measurements using a clinical grade monitoring system (Contour One, Ascensia Diabetes Care, Mississauga, Ontario) as previously described. Mice were considered diabetic when blood glucose was at least 15 mmol/L (270 mg/dl). Prior to diabetes induction the mice were block randomized into experimental groups (n=10 Foretinib treatment, n=5 vehicle treatment, n=5 non-treated diabetic control). An additional 5 non-diabetic animals served as a healthy control. Foretinib treatments started 1-week post-diabetes induction. Foretinib was prepared fresh daily by dissolving 6 mg Foretinib in 1 ml of 1% (Hydroxypropyl)-methyl cellulose (09963, Sigma Aldrich) and 0.2% sodium dodecyl sulfate ([…], Sigma Aldrich) in sterile H2O. […] Cutaneous nerve fibers were semiautomatically traced using batch processing with consistent fluorescence intensity thresholds across the entire data set. Volumetric nerve fiber density was determined as total nerve fiber volume per skin tissue volume for an 830×830×200 μm region of interest.

With `COc1cc2c(Oc3ccc(NC(=O)C4(C(=O)Nc5ccc(F)cc5)CC4)cc3F)ccnc2cc1OCCCN1CCOCC1` [Foretinib, N1-[3-Fluoro-4-({6-methoxy-7-[3-(morpholin-4-yl)propoxy]quinolin-4-yl}oxy)phenyl]-N′1-(4-fluorophenyl)cyclopropane-1,1-dicarboxamide], the “motor neuron axon length and NMJ formation” value in data set [1] (2 days old larvae exposed to Foretinib) is “longer and forms more NMJ”. The swimming deficits result in data set [1] (TDP-43 mutant larvae, data not shown) was “rescuing its swimming deficits”. For the same molecule, the “rescue of ER-stressor induced motor neuron death” value in data set [2] is listed as “rescued Thapsigargin-and Tunicamycin-induced death”. Besides, the “maximal tolerable dose not affecting behavior and body weight” value in data set [3] is on record as 5 mg/kg. The “cutaneous nerve fiber density as % of non-diabetic reference” value in data set [4] was determined as 67.3%.
